Consider 87 compounds from a melting point compilation (Tetko et al.; mined from patent text by program, amines drawn as free bases though some values may be those of a salt).

Residues, ends and D or L forms follow the SMILES beside them. *: point of attachment. Tos = Cc1ccc(S(=O)(=O)*)cc1; OtBu = CC(C)(C)O*

What is called melting point is the temperature of the solid-liquid transition. The compound `CC(=O)c1ccc(NCc2ccc3ccc4nc(C)[nH]c(=O)c4c3c2)cc1` had a melting point of over 235 °C.

Consider `CN(CCCOC(=O)Cc1ccccc1Nc1c(Cl)cccc1Cl)CC1(SN=O)CCCCC1`, for which the melting point was in the range of 58 to 60 °C.

The compound `Cc1n[nH]c2cc(-c3nn(C(C)c4oc5cccc(F)c5c(=O)c4-c4cccc(F)c4)c4ncnc(N)c34)ccc12` (configuration not stated) yielded a melting point of 156 to 159 °C.

Regarding `CC(C)(O)Cn1cnc2c(N)nc3cc(Br)ccc3c21`, the melting point was over 250 °C.

As to `C=CCC(CC=C)n1c(CC)nc2c1c(=O)n(C)c(=O)n2-c1ccc(Cl)cc1Cl`, the melting point lay in the range of 145 to 146 °C.

For `O=C(Nc1ccc(-n2nc(C(F)(F)F)cc2C2CC2)c(F)c1)c1ccncc1F`, the melting point was 161 to 165 °C.

On to `Cc1ccc(S(=O)(=O)N2CCC[C@H]2C(=O)N[C@@H](CC(=O)OC(C)(C)C)C(=O)O)cc1` (Tos-Pro-Asp(OtBu)-OH), for which the melting point lay within 153 to 155 °C.

In turn, `Clc1ccc(C2(CBr)OCC(COc3ccc4ccccc4c3)O2)c(Cl)c1` (configuration not stated) displayed a melting point of 118 °C.

`CC(=O)N1CCCCc2ccc(C(=O)CCCl)cc21` had a melting point of 106 to 107 °C.

Compound `CC12CCC(O)CC1=CCC1C2CCC2(C)C(c3cncnc3)=CCC12` (configuration not stated) came in with a melting point of 231 to 233 °C.

`NN=c1[nH]c2ccc(Br)cc2cc1[N+](=O)[O-]` came in with a melting point of 187 °C.

The compound `O=C(Nc1nccs1)c1nc(-c2cccc3ccccc23)[nH]c1-c1ccc(F)cc1` displayed a melting point of 218 to 220 °C.

For `CC(C)(C)OC(=O)NC1CCCCC1NC(=O)c1ccccn1` (configuration not stated), the melting point lay within 78 to 79 °C.

As to `O=C1c2cc(F)cc(F)c2CC[C@@H]1NC(=O)C(F)(F)F`, the melting point lay within 142 to 145 °C.

For `CN1CCN(C(=NNc2ccccc2Cl)c2ccccc2F)CC1`, the melting point lay within 109 to 111 °C.

Compound `CCCCNc1c(C(=O)OCC)c(C)nc2nc(C)c(C)nc12` came in with a melting point of 97 to 99 °C.

The compound `NC(=O)C(N)c1c(Cl)cccc1Cl` (configuration not stated) yielded a melting point of 166 °C.

Compound `CC(C)(C)c1cccc(S(=O)(=O)n2c(Cc3ccc(C(=O)O)cc3)cc3ccc(C(F)(F)F)cc32)c1` came in with a melting point of 199 °C.

Consider `CCCCOC(=O)[C@H]1CN(c2ccc3c(c2)sc(=O)n3CC)C(=O)O1`, for which the melting point fell in the range of 99 to 102 °C.

Consider `C=CCc1c(O)ccc2c1CCC(=O)N2CC=C(C)C`, for which the melting point lay in the range of 182 to 184 °C.

Consider `O=[N+]([O-])c1ccc(C2(Cn3cncn3)OCCO2)cc1`, for which the melting point came to 160 °C.

Take `COc1cccc(C(C)c2ccc(-c3cnn4c(O)ncnc34)cc2)c1` (configuration not stated): the melting point was in the range of 282 to 285 °C.

In turn, `O=C(Nc1ccc(-n2nc(C(F)(F)F)cc2C(F)(F)F)cc1)Nc1ccc([N+](=O)[O-])cc1Cl` showed a melting point of 229 to 230 °C.

As for `CC(C)CCC1C(=O)N(c2c(F)c(F)nc(F)c2F)S(=O)(=O)N1C` (configuration not stated), the melting point fell in the range of 80.5 to 81.5 °C.

Turning to `C[C@H](Nc1nc(NC=O)nc([C@@H](C)F)n1)C1CCCCC1`, the melting point was 127 °C.

Compound `O=C(CCCCCn1ccnn1)NC[C@@H]1CN2C(=O)C[C@H]2O1` (racemic) had a melting point of 108 to 109 °C.

`COc1ccc2ccc(N3C(=O)c4ccccc4C3CC(O)CCC(C)C)nc2n1` (configuration not stated): the melting point is 110 °C.

Consider `NC(Cc1nc2cc(F)c(F)cc2nc1CP(=O)(O)O)C(=O)O` (configuration not stated), for which the melting point lay in the range of 144 to 145 °C.

Consider `O=C(c1ccc(Cl)cc1)N1CCCC2=C1CCc1cc(Cl)ccc12`, for which the melting point lay in the range of 189 to 191 °C.

Regarding `CCN(CC)c1ccc(/C=C/c2cc(/C=C/c3ccc4cc[nH]c4c3)[nH]n2)c(OCCN2CCOCC2)c1`, the melting point is 96 to 99 °C.

In turn, `Cc1cnc2c(c1)C[C@H](Cc1ccc(O)cc1)CC2` gave a melting point of 157 to 158 °C.

`O=C(NC(CCl)CCOc1ccc(Br)cc1)c1c(F)cccc1F` (configuration not stated) yielded a melting point of 116 to 119 °C.

With `ClCCN(CCCl)CCCCOc1cccc(Nc2c3ccccc3nc3c(OCCN(CCCl)CCCl)cccc23)c1`, the melting point is 95 to 96 °C.

`CCCCCCCCCCCCCCCCOC(=O)c1ccc(Cl)c(Nc2cc(=O)n(-c3c(Cl)cc(Cl)cc3Cl)n2C(=O)OCc2ccccc2)c1` displayed a melting point of 128 to 131 °C.

Consider `CCOC(=O)c1cn(-c2cc(N)c(F)cn2)c2c(Cl)c(F)c(F)cc2c1=O`, for which the melting point is 140 to 148 °C.

`Cc1ccn2cc(CCc3ccc4nc(N=CN(C)C)oc4c3)nc2c1` displayed a melting point of 150 to 151 °C.

On to `COc1ccc(CCc2nc(C(N)=O)c[nH]2)cc1`, for which the melting point lay within 218 to 219 °C.

In turn, `CCCCn1cc(C(=O)Nc2nccs2)c2ccc(Cl)cc21` returned a melting point of 168 to 169 °C.

Compound `COc1cc(CCCC2SC(=O)NC2=O)cc(OC)c1OCc1coc(/C=C/c2ccccc2)n1` (configuration not stated) had a melting point of 163 to 164 °C.

The compound `CN(C)C=NS(=O)(=O)CCC(C)(C)CCI` had a melting point of 105 to 106 °C.

`CCCCCCCCc1ccc(CCC(CCOC(C)=O)(CCOC(C)=O)NC(C)=O)cc1` showed a melting point of 57 to 59 °C.

Turning to `O=C1c2ccccc2OC2CCCON12` (configuration not stated), the melting point is 139 to 141 °C.

`COC[C@H]1C[C@H]1c1ccccc1` (relative stereo): the melting point fell in the range of 46 to 50 °C.

The compound `CN=C(NS(=O)(=O)N1CCCCC1)C1=NN(c2ccc(Cl)cc2)C(c2ccccc2)C1` (configuration not stated) came in with a melting point of 141 to 144 °C.

Regarding `Cc1nc2cccc(OCC(C)(C)C(=O)NC(C)C)c2c(N)c1C(=O)O`, the melting point was 216 to 218 °C.

In turn, `Cc1nccn1CC1CCC(Nc2ccccc2I)=CC1=O` (configuration not stated) returned a melting point of 88 to 100 °C.

`O=C(O)CCCCNS(=O)(=O)c1ccc(N2CCCCCC2)cc1` showed a melting point of 135 to 140 °C.

`CC1(C(=O)c2c[nH]c3ncc(-c4cccc(N5CCCC5)c4)nc23)CCCCCC1`: the melting point was 192 to 193 °C.

`COC(=O)CCC(C#N)(CCC(=O)OC)c1ccc(OC)c(OC)c1`: the melting point was in the range of 72 to 73 °C.

In turn, `C=CCn1cc(C(=O)O)c(=O)c2cc(F)c(N3CCN(Cc4ccccc4)CC3)cc21` came in with a melting point of 209 °C.

The compound `O=C(c1ccccc1)c1ccc(OCCBr)cc1O` yielded a melting point of 87 to 89.5 °C.

Turning to `CCOC(=O)N(c1ccccc1N=NC(NC(=O)CCl)(C(=O)OCC)C(=O)OCC)c1cccc(C)c1C`, the melting point lay within 120 to 122 °C.

As to `CC(C)n1c(=O)n(C(=O)NCC2CCN(CC3(C(=O)O)CCOCC3)CC2)c2ccccc21`, the melting point was 176 °C.

`CC1(C)C(=O)Oc2ccc3cc(C(=O)NCC(F)(F)F)c(Cn4cncn4)cc3c21` showed a melting point of 200 to 201 °C.

`CCCCCCCCCCC#Cc1csc(CC(CO)NC(C)=O)c1` (configuration not stated) registered a melting point of 55 to 58 °C.

For the compound `COC(=O)c1cccc(F)c1O`, the melting point is 94 to 95 °C.

The compound `CSCCOc1ccc(/C=C(\C)c2ccc3c(c2)C(C)(C)CCC3(C)C)cc1` returned a melting point of 94 to 96 °C.

Compound `COc1cc2sc(C3=NNC(=O)CC3C)cc2cc1OCCCN1CCCCC1` (configuration not stated) had a melting point of 198 to 200 °C.

`C=C(COc1ccccc1C=NO)c1ccccc1`: the melting point was in the range of 61 to 62 °C.

As to `CCCCOc1ccc(S(C)(=O)=O)cc1-c1nc2c(CC)nn(Cc3ccccn3)c2c(=O)[nH]1`, the melting point lay within 189 to 191 °C.

The compound `O=C(c1ccccc1)C1(c2ccccc2)COCO1` (configuration not stated) returned a melting point of 66 to 66.5 °C.

The compound `CCOC(=O)c1cn2c3c(cc(CN4CCOCC4)cc3c1=O)OC(F)(F)C2` displayed a melting point of 176 to 177 °C.

Consider `CN(C(=O)c1ccc2nonc2c1)C1CCCCC1=O` (configuration not stated), for which the melting point fell in the range of 144 to 145 °C.

Take `O=Cc1ccc(OCc2ccccc2)c(CCl)n1`: the melting point lay in the range of 72 to 73 °C.

Regarding `C(=C\C1CCCCC1)/c1nc2ccccc2n1-c1ccccn1`, the melting point was 105 to 106 °C.

With `C[C@H](C#Cc1ccc(Cc2cc3ccccc3s2)s1)N(O)C(N)=O`, the melting point lay within 157 to 159 °C.

`CS(=O)(=O)c1ccc(-c2cccn2-c2ccc(F)cc2F)cc1` displayed a melting point of 122 to 125 °C.

The compound `CCN1CCCC1CNC(=O)c1cc(Cl)c(O)cc1OC` (configuration not stated) had a melting point of 185 to 186 °C.

The compound `Cn1c(CNC(=O)c2ccc3ccccc3c2)nc(-c2ccncn2)cc1=O` had a melting point of 250 to 252 °C.

With `CC(C)COC(=O)Nc1ccc(C2CCSCC2)cc1`, the melting point was in the range of 126 to 128 °C.

Compound `CC12C=CC(=O)C(N)=C1CCC1C2CCC2(C)C(=O)CCC12` (configuration not stated) registered a melting point of 162 to 169 °C.

Regarding `COc1ccc(Nc2cc(-c3ccc(F)cc3)nc3ccccc23)cc1Cl`, the melting point turned out to be 260 °C.

Compound `COCCOc1cc2c(Nc3ccc(Sc4nccn4C)c(Cl)c3)c(C#N)cnc2cc1N1CCC(N2CCCC2)CC1` returned a melting point of 238 to 241 °C.

For the compound `O=C(C=Cc1cccnc1)NCCCCN1CCN(C(c2ccccc2)c2ccccc2)CC1`, the melting point lay within 143 to 144 °C.

For `O=C(NCc1ccc(Cl)cc1)c1cn2c(CO)cc3cccc(c1=O)c32`, the melting point lay in the range of 211 to 213 °C.

As to `Oc1c(CN2CCOCC2)ncc2c1COC2c1ccccc1` (configuration not stated), the melting point was determined as 172 °C.

Take `CCOC(=O)c1cnc2c(c(C)nc3cc(C)nn32)c1N1CCN(C)CC1`: the melting point lay within 158 to 159 °C.

Take `COC(=O)N1CCN2c3ccc(N4CC(CNC(C)=O)OC4=O)cc3OCC2C1` (configuration not stated): the melting point fell in the range of 185 to 190 °C.

As to `ClCCCn1cc2cc(OCc3ccccc3)ccc2n1`, the melting point was 97 to 98 °C.

In turn, `Cc1sc2c(Br)c3ccccc3c(-c3cc(Br)c(O[C@@H](CCc4ccccc4)C(=O)O)c(Br)c3)c2c1C` registered a melting point of 176 to 177 °C.

`CN(C1CCCc2ccc([N+](=O)[O-])cc21)S(C)(=O)=O` (configuration not stated): the melting point lay in the range of 138 to 140 °C.

For the compound `COc1ccc2c(c1)Sc1c(cc(OC)c(O)c1Br)N2C(=O)OC(C)OC(C)=O` (configuration not stated), the melting point lay within 162 to 164 °C.

`C=CCn1c(NCc2cccnc2)nc(N2CCc3ccccc3CC2)c(C#N)c1=O` returned a melting point of over 200 °C.

As to `COc1cc2c(c(Cl)c1Cl)C(=O)C(C)(C)C2`, the melting point came out at 142 °C.

In the case of `NNC(=O)c1ccnc2[nH]ccc12`, the melting point was 239 to 240 °C.

Compound `COc1ccc(C(=O)C(Br)CC2CCCCC2)c(OC)c1` (configuration not stated) displayed a melting point of 83 to 89 °C.

Regarding `CCOC(=O)CN(CCOc1cc2cc3ncc(C#N)c(Nc4cc(OC)c(Cl)cc4C)c3cc2cc1OCC)CC(=O)OCC`, the melting point is 85 to 86 °C.
